This note sets out measurements from ChEMBL document CHEMBL4819133, “Exploiting the HSP60/10 chaperonin system as a chemotherapeutic target for colorectal cancer” (Bioorg Med Chem, 2021).

Molecules are shown by their SMILES. Active and inactive are the calls of the source. The rule behind the calls is not given here.

As usually defined, the CC50 is the concentration that lowers cell viability or growth by half. One may read the IC50 as the concentration needed to halve the response being measured. What is called EC50 is the concentration giving half of the maximal effect. Usually inhibition stands for the change of the read-out against control, counted positive when it falls.

Data set [1] is described as follows: Cytotoxicity against human FHs74Int cells assessed as reduction in cell viability measured after 48 hrs by AlamarBlue assay. Format: cell-based.
Data set [2] can be described thus: Inhibition of refolded MDH (unknown origin)-mediated oxidation of NADPH in presence of mesoxalic acid treated with compound after refolding of the denatured enzyme. More on the design: species or system Homo sapiens.
Data set [3] has as its target T1, Thiosulfate sulfurtransferase (Homo sapiens, UniProt Q16762).
T1 sequence (Q16762 whole entry): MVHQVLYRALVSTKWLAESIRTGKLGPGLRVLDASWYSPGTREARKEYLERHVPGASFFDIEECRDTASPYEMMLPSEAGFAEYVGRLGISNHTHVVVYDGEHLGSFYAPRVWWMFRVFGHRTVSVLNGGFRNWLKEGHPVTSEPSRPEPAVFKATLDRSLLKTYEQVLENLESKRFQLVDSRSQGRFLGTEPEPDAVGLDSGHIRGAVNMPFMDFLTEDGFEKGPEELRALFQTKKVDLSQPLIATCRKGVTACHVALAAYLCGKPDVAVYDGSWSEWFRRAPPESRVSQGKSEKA
Briefly: Inhibition of refolded Rhodanese (unknown origin)-mediated conversion of cyanide to thiocyanate treated with compound after refolding of the denatured enzyme.

The target of data set [4] is T2, E. coli GroEL/ES (Escherichia coli, UniProt P0A6F5). Briefly: Inhibition of Escherichia coli GroEL/ES-mediated refolding of the denatured rhodanese. The class given is protein-complex assay.
The next data set concerns HEK293. Kind of data set: (§1) Cytotoxicity against human HEK293 cells assessed as reduction in cell viability measured after 48 hrs by AlamarBlue assay. The class given is cell-based. The following applies: hek293, 48 h. A general note: Resazurin is reduced to fluorescent resorufin, in cell work by metabolically active cells.
A short description of data set [5]: Cytotoxicity against human THLE-3 cells assessed as reduction in cell viability measured after 48 hrs by AlamarBlue assay. The class given is cell-based. The following applies: for CC50: thle-3, 48 h; for CC50 at 48 h: THLE-3 cells.
The test system of data set [6] is HT-29. Briefly: Cytotoxicity against human HT-29 cells assessed as reduction in cell viability measured after 48 hrs by AlamarBlue assay. Format: functional, cell-based. The following applies: HT-29, 48 h.
Another data set has as its target HSP60/HSP10 (Homo sapiens, UniProt P10809). Kind of data set: Inhibition of human mitochondrial HSP60/10-mediated refolding of the denatured malate dehydrogenase. The class given is mitochondria, Mitochondria.
In data set [7] the target is T2, E. coli GroEL/ES. Briefly: Inhibition of Escherichia coli GroEL/ES-mediated refolding of the denatured malate dehydrogenase. The class given is protein-complex assay.
Another data set relates to FHC. Kind of data set: Cytotoxicity against human FHC cells assessed as reduction in cell viability measured after 48 hrs by AlamarBlue assay. Format: cell-based.
In data set [8] the test system is DLD-1. Kind of data set: Cytotoxicity against human DLD-1 cells assessed as reduction in cell viability measured after 48 hrs by AlamarBlue assay. The following applies: DLD-1, 48 h. Format: functional, cell-based.
Data set [9] deals with HCT-116. Kind of data set: Cytotoxicity against human HCT-116 cells assessed as reduction in cell viability measured after 48 hrs by AlamarBlue assay. Format: functional, cell-based. The following applies: HCT-116, 48 h.
Data set [10] deals with DLD-1. Briefly: Inhibition of clonogenicity in human DLD-1 cells assessed as reduction in number of colony formation incubated for 72 hrs followed by culturing in fresh compound-free medium for 7 days by crystal violet staining based analysis. Format: functional, cell-based.
Data set [11] deals with HCT-116. Kind of data set: Inhibition of cell migration in human HCT-116 cells at 10 uM measured at >=20 hrs by scratch wound healing assay based phase contrast microscopy. The class given is functional. The following applies: time hrs >=20.
Data set [12] concerns HCT-116. Kind of data set: Inhibition of cell migration in human HCT-116 cells measured at 72 hrs by scratch wound healing assay based phase contrast microscopy. Format: functional. The following applies: HCT-116, 72 h.
In data set [13] the test system is HCT-116. Kind of data set: Induction of apoptosis in human HCT-116 cells at 100 uM incubated for 48 hrs by AnnexinV-FITC/PI staining based flow cytometry. Format: functional, cell-based. For orientation: A flow cytometer gives signals particle by particle.
For data set [14], the system named is HCT-116. Kind of data set: Inhibition of clonogenicity in human HCT-116 cells assessed as reduction in number of colony formation incubated for 72 hrs followed by culturing in fresh compound-free medium for 7 days by crystal violet staining based analysis. The class given is functional, cell-based.
The subject of data set [15] is HCT-116. Kind of data set: Induction of cell death in human HCT-116 cells assessed as loss of cell monolayer integrity and cytoplasm extrusion at 100 uM measured for 72 hrs by phase contrast microscopy. Format: functional, cell-based.
In data set [16] the test system is HCT-116. Kind of data set: Inhibition of clonogenicity in human HCT-116 cells assessed as reduction in colony formation at 50 uM incubated for 72 hrs followed by culturing in fresh compound-free medium for 7 days by crystal violet staining based analysis. The class given is functional.
The nature of data set [17]: as §1. Format: cell-based. The following applies: HEK293 cells.
Data set [18] has as its system HT-29. Kind of data set: Inhibition of clonogenicity in human HT-29 cells assessed as reduction in number of colony formation incubated for 72 hrs followed by culturing in fresh compound-free medium for 7 days by crystal violet staining based analysis. The class given is functional, cell-based.
In data set [19] the test system is HCT-116. Briefly: Inhibition of clonogenicity in human HCT-116 cells assessed as reduction in size of colony incubated for 72 hrs followed by culturing in fresh compound-free medium for 7 days by crystal violet staining based analysis. Format: functional, cell-based.
Data set [20] has as its system DLD-1. Briefly: Inhibition of clonogenicity in human DLD-1 cells assessed as reduction in size of colony incubated for 72 hrs followed by culturing in fresh compound-free medium for 7 days by crystal violet staining based analysis. The class given is functional, cell-based.
Data set [21] has as its system DLD-1. Briefly: Inhibition of clonogenicity in human DLD-1 cells assessed as reduction in colony formation at 50 uM incubated for 72 hrs followed by culturing in fresh compound-free medium for 7 days by crystal violet staining based analysis. Format: functional.
The subject of data set [22] is HT-29. Kind of data set: Inhibition of clonogenicity in human HT-29 cells assessed as reduction in size of colony incubated for 72 hrs followed by culturing in fresh compound-free medium for 7 days by crystal violet staining based analysis. Format: functional, cell-based.
For data set [23], the system named is HT-29. Kind of data set: Inhibition of clonogenicity in human HT-29 cells assessed as reduction in colony formation at 50 uM incubated for 72 hrs followed by culturing in fresh compound-free medium for 7 days by crystal violet staining based analysis. The class given is functional.

Sequence of HSP60/HSP10 (P10809 whole entry): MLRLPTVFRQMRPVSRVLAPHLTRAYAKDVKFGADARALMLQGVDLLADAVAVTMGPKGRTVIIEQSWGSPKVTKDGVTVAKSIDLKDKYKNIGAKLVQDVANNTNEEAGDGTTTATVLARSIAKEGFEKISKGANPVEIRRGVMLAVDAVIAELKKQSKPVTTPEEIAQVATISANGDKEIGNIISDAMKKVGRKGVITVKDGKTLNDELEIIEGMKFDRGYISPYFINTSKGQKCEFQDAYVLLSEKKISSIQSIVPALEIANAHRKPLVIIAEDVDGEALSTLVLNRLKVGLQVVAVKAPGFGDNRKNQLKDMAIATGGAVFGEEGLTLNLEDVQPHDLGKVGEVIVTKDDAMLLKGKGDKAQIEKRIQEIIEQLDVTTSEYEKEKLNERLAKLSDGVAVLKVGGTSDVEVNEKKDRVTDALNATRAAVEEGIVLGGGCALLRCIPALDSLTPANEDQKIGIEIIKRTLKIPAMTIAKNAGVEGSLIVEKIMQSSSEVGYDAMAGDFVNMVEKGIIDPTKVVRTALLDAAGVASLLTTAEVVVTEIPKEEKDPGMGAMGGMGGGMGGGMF
Sequence of HSP60/HSP10 (P61604 whole entry, further chain): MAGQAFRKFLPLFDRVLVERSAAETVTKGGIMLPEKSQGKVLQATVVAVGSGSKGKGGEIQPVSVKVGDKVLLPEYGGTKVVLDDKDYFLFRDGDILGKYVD
T2 sequence (P0A6F5 whole entry, looked up): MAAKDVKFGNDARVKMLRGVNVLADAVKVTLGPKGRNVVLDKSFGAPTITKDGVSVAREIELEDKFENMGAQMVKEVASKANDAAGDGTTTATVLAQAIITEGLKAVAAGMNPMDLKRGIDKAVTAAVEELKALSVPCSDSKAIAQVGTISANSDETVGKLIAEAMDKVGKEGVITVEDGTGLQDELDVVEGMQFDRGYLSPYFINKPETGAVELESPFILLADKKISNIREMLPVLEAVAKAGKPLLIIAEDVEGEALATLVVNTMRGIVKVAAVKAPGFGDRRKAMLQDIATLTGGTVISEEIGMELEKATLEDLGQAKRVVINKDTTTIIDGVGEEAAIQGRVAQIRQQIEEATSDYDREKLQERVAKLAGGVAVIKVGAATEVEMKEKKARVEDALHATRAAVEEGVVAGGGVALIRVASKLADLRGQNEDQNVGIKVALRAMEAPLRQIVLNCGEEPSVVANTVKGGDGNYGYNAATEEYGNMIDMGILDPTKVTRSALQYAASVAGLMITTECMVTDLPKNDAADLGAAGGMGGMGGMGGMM

Turning to `COc1ccc(S(=O)(=O)Nc2ccc3oc(-c4ccc(NS(=O)(=O)c5cc(Br)ccc5OC)cc4)nc3c2)cc1`, the CC50 in [1] was greater than 100 µM; in the data set with HEK293, 18 µM; in data set [5] it was 16 µM; in the data set on FHC it was greater than 100 µM. Also, the IC50 was greater than 62.5 µM in data set [2]; greater than 100 µM in data set [3]; 22 µM at E. coli GroEL/ES [4]; 67 µM against HSP60/HSP10; 27 µM on E. coli GroEL/ES [7]. Besides, the EC50 was 14 µM in the data set with HT-29 [6], 15 µM in the data set with DLD-1 [8] and 12 µM in the data set on HCT-116 [9].
`O=C(Nc1ccc(Sc2nc3ccccc3s2)c(Cl)c1)c1cccc(Br)c1O`: the half-maximal cytotoxic concentration (CC50) (in data set [1]; in the data set with FHC) was greater than 100 µM each time. Moreover, the EC50 in the data set on DLD-1 [10] turned out to be 21 µM; in the data set with HCT-116 [12], 2 µM; in the data set with HCT-116 [14], 17 µM; in the data set with HT-29 [18], 32 µM; in the data set on HCT-116 [19], 9.1 µM; in the data set on HT-29 [6], 20 µM. Moreover, the EC50 was found to be 22 µM with DLD-1 [8], 11 µM in the data set with DLD-1 [20], 12 µM in the data set on HCT-116 [9] and 12 µM in the data set on HT-29 [22]. Further, the inhibition result in the data set with DLD-1 [10], in the data set with HCT-116 [14], in the data set on HT-29 [18], in the data set on HCT-116 [19], in the data set on DLD-1 [20] and with HT-29 [22] was “Dose-Dependent Effect” throughout. Moreover, the inhibition result with HCT-116 [11] was “Active”. Further, the IC50 in data set [2] was greater than 62.5 µM; on E. coli GroEL/ES [4], 5.9 µM; at HSP60/HSP10, 7.7 µM; at E. coli GroEL/ES [7], 10 µM. Further, the outcome in the data set with HCT-116 [13] and with HCT-116 [15] was Active. The inhibition at 50 µM with HCT-116 [16], in the data set with DLD-1 [21] and with HT-29 [23] was 100% in each case. The CC50 at 48 h in data set [17] was 68 µM; in data set [5] it was 18 µM.
In the case of `COc1ccc(S(=O)(=O)Nc2ccc3oc(-c4ccc(NC(=O)C5CCN(C(C)=O)CC5)cc4)nc3c2)cc1`, the CC50 is 84 µM in data set [1], 34 µM in the data set on HEK293, 31 µM in [5] and greater than 100 µM with FHC. The IC50 is greater than 62.5 µM in [2]; greater than 100 µM in [3]; 61 µM against E. coli GroEL/ES [4]; 24 µM on HSP60/HSP10; 38 µM on E. coli GroEL/ES [7]. In addition, the 50% effective concentration (EC50) in the data set on HT-29 [6] came out at 16 µM; in the data set on DLD-1 [8], 15 µM; with HCT-116 [9] it was 15 µM.
Turning to `COc1c(Br)cccc1C(=O)Nc1ccc(Sc2nc3ccccc3s2)c(Cl)c1`, the CC50 (in [1]; in the data set with FHC) was greater than 100 µM in each case. Further, the EC50 in the data set with DLD-1 [10] came to 11 µM; with HCT-116 [12], 5.5 µM; with HCT-116 [14], 11 µM; in the data set on HT-29 [18], 27 µM; in the data set on HCT-116 [19], 12 µM; with HT-29 [6] it was 11 µM. Moreover, the EC50 in the data set with DLD-1 [8] was 10 µM; in the data set on DLD-1 [20], 10 µM; in the data set on HCT-116 [9], 8.5 µM; in the data set with HT-29 [22], 13 µM. The inhibition entry with DLD-1 [10], in the data set with HCT-116 [14], in the data set on HT-29 [18], in the data set with HCT-116 [19], in the data set on DLD-1 [20] and with HT-29 [22] was “Dose-Dependent Effect” throughout. Moreover, the inhibition entry with HCT-116 [11] was “Active”. For the same compound, the IC50 is greater than 62.5 µM in data set [2], 16 µM against E. coli GroEL/ES [4] and 37 µM at E. coli GroEL/ES [7]. In addition, the outcome in the data set on HCT-116 [13] and with HCT-116 [15] was Active. The inhibition at 50 µM with HCT-116 [16], in the data set with DLD-1 [21] and in the data set with HT-29 [23] was 100% throughout. Also, the CC50 at 48 h came to 40 µM in [17] and 14 µM in data set [5].
